Literature values in patent US20080275015A1, “Formulation and Method for Treating Interstitial Cystitis and Related Bladder Conditions” (priority 2007, published 2008).

Conditions: oral prescription for interstitial cystitis; standard dosing 100 mg three times daily

pentosan polysulfate sodium [Elmiron]
cases in which treatment has been shown to be effective: 30%
